Experimental data taken from paper PMC6496959 (Journal of medicinal chemistry, 2018).

Test system: A/PR/8/34 (NA-H274Y) (H1N1)
Assay type: cell-based, influenza A virus
Details: read-out: Antiviral activity (EC50)

Compound | EC50
NC12CC3CC(CC(C3)C1)C2 [Amantadine, amantadine, reference compound] | > 100 µM
CCOC(=O)C1=C[C@@H](OC(CC)CC)[C@H](NC(C)=O)[C@@H](N)C1 [Oseltamivir, oseltamivir] | > 10 µM
